ChEMBL document CHEMBL5725601, “Tetrahydroisoquinoline derivatives useful as inhibitors of diacylglyceride O-acyltransferase 2” (2018)

Biological target: T1, Diacylglycerol O-acyltransferase 2 (Homo sapiens, UniProt Q96PD7)
T1 sequence (Q96PD7 whole entry): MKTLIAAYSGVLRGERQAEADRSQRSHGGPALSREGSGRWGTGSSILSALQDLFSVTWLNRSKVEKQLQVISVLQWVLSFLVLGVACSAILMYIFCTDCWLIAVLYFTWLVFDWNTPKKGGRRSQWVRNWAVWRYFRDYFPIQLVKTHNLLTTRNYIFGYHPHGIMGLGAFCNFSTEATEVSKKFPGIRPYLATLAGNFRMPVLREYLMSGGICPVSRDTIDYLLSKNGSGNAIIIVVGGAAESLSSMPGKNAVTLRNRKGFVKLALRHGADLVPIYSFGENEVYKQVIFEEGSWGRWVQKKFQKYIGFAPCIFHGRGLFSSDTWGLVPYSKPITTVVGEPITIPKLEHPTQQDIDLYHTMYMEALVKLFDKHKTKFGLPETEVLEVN
Assay: Enzymatic Activity Assay: DGAT2 activity was determined by measuring the amount of enzymatic product triolein (1,2,3-Tri(cis-9-octadecenoyl)glycerol) using the membrane prep mentioned above. The assay was carried out in deep well 384 plates in a final volume of 40 μL at room temperature. The assay mixture contained the following: assay buffer (100 mM Tris·Cl, pH 7.0, 20 mM MgCl2, 5% ethanol), 25 μM of diolein, 10 μM of oleoyl-CoA and 10 ng/μL of DGAT2 membrane.

Row | SMILES | IC50
1 | CC(C)(C)NC(=O)N1CCc2c(-c3cccc(C(F)(F)F)c3)ccc(C(=O)NCc3noc(-c4ccccc4)n3)c2C1 | 326 nM
2 | CC(C)(C)NC(=O)N1CCc2c(-c3cccc(C(F)(F)F)c3)ccc(C(=O)NCc3nc(-c4ccccn4)no3)c2C1 | 588 nM
